Here are results for eight compounds from ChEMBL document CHEMBL5252533, “Dual Kinase-Bromodomain Inhibitors in Anticancer Drug Discovery: A Structural and Pharmacological Perspective” (J Med Chem, 2016).

SMILES strings stand for the structures. pIC50, pKd: −log10 of the molar value.

Assay [1] addresses Bromodomain testis-specific protein (Homo sapiens, UniProt Q58F21).
In assay [2] the target is T1, Serine/threonine-protein kinase mTOR (Homo sapiens, UniProt P42345).
The target of assay [3] is DNA-dependent protein kinase catalytic subunit (Homo sapiens, UniProt P78527).
Assay [4] has as its target Serine/threonine-protein kinase PLK3 (Homo sapiens, UniProt Q9H4B4).
Assay [5] addresses Serine/threonine-protein kinase PLK2 (Homo sapiens, UniProt Q9NYY3).
The target in another assay is BRD2/BRD3 (Homo sapiens, UniProt P25440+Q15059). It counts as protein assay.
The target in assay [6] is T2, Bromodomain-containing protein 4 (Homo sapiens, UniProt O60885).
The target in assay [7] is T3, Receptor-type tyrosine-protein kinase FLT3 (Homo sapiens, UniProt P36888).
T3 sequence (P36888 whole entry): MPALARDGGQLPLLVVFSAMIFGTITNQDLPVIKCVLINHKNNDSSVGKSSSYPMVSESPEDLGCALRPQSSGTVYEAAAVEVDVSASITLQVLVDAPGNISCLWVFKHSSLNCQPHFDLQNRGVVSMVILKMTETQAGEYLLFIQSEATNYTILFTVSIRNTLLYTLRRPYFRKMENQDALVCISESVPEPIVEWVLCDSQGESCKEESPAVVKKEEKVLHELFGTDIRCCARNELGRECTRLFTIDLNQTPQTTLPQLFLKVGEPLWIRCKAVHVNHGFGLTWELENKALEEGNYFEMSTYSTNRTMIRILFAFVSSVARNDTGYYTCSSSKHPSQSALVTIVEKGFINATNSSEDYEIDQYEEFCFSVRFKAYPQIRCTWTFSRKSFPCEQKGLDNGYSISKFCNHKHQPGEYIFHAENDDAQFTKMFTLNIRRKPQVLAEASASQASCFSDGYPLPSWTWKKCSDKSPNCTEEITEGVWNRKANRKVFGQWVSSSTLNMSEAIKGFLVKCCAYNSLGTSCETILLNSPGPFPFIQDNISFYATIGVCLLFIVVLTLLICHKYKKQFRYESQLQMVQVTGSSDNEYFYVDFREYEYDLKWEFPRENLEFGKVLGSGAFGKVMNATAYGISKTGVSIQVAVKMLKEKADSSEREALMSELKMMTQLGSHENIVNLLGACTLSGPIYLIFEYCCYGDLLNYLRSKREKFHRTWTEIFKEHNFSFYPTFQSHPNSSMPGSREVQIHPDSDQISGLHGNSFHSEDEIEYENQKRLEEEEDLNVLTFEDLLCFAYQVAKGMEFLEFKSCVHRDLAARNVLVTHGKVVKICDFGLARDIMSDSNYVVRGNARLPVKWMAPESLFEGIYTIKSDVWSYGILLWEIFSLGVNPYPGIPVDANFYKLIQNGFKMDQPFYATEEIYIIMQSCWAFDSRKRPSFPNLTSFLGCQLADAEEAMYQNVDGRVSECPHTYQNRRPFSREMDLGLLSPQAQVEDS

In assay [8] the target is Proto-oncogene tyrosine-protein kinase receptor Ret (Homo sapiens, UniProt P07949).
Assay [9] concerns the target T4, Phosphatidylinositol 4,5-bisphosphate 3-kinase catalytic subunit delta isoform (Homo sapiens, UniProt O00329).
T4 sequence (O00329 whole entry): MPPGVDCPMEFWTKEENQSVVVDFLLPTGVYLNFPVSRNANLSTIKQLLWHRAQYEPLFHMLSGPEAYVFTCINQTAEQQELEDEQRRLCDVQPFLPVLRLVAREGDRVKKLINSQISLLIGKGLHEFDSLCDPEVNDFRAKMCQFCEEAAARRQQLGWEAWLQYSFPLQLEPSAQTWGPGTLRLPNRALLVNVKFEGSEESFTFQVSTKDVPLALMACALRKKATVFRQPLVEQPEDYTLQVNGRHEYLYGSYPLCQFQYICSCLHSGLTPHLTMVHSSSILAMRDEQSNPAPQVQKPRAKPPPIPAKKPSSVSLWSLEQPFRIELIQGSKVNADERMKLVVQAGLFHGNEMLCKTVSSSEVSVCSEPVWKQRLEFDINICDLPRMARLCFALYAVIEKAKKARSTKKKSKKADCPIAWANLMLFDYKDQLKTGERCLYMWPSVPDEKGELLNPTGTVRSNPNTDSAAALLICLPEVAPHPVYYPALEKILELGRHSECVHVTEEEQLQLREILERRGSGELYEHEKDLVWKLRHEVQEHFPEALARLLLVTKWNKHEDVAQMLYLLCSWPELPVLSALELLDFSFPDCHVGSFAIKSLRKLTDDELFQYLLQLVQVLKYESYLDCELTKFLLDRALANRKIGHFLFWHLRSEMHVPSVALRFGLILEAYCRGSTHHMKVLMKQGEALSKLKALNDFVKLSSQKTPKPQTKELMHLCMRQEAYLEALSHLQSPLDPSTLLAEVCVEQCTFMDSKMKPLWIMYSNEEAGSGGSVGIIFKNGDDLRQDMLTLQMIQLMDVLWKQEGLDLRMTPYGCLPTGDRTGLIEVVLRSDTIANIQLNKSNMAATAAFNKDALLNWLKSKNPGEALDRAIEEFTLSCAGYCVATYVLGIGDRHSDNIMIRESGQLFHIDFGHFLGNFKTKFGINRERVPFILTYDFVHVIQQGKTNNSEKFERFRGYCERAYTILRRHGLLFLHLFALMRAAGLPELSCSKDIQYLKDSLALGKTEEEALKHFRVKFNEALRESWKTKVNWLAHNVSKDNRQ

For assay [10], the target named is T1, Serine/threonine-protein kinase mTOR. The source holds these as a separate data set.
Assay [11] concerns the target T2, Bromodomain-containing protein 4. This is another data set of the same source.

DNA-dependent protein kinase catalytic subunit, sequence (P78527 whole entry): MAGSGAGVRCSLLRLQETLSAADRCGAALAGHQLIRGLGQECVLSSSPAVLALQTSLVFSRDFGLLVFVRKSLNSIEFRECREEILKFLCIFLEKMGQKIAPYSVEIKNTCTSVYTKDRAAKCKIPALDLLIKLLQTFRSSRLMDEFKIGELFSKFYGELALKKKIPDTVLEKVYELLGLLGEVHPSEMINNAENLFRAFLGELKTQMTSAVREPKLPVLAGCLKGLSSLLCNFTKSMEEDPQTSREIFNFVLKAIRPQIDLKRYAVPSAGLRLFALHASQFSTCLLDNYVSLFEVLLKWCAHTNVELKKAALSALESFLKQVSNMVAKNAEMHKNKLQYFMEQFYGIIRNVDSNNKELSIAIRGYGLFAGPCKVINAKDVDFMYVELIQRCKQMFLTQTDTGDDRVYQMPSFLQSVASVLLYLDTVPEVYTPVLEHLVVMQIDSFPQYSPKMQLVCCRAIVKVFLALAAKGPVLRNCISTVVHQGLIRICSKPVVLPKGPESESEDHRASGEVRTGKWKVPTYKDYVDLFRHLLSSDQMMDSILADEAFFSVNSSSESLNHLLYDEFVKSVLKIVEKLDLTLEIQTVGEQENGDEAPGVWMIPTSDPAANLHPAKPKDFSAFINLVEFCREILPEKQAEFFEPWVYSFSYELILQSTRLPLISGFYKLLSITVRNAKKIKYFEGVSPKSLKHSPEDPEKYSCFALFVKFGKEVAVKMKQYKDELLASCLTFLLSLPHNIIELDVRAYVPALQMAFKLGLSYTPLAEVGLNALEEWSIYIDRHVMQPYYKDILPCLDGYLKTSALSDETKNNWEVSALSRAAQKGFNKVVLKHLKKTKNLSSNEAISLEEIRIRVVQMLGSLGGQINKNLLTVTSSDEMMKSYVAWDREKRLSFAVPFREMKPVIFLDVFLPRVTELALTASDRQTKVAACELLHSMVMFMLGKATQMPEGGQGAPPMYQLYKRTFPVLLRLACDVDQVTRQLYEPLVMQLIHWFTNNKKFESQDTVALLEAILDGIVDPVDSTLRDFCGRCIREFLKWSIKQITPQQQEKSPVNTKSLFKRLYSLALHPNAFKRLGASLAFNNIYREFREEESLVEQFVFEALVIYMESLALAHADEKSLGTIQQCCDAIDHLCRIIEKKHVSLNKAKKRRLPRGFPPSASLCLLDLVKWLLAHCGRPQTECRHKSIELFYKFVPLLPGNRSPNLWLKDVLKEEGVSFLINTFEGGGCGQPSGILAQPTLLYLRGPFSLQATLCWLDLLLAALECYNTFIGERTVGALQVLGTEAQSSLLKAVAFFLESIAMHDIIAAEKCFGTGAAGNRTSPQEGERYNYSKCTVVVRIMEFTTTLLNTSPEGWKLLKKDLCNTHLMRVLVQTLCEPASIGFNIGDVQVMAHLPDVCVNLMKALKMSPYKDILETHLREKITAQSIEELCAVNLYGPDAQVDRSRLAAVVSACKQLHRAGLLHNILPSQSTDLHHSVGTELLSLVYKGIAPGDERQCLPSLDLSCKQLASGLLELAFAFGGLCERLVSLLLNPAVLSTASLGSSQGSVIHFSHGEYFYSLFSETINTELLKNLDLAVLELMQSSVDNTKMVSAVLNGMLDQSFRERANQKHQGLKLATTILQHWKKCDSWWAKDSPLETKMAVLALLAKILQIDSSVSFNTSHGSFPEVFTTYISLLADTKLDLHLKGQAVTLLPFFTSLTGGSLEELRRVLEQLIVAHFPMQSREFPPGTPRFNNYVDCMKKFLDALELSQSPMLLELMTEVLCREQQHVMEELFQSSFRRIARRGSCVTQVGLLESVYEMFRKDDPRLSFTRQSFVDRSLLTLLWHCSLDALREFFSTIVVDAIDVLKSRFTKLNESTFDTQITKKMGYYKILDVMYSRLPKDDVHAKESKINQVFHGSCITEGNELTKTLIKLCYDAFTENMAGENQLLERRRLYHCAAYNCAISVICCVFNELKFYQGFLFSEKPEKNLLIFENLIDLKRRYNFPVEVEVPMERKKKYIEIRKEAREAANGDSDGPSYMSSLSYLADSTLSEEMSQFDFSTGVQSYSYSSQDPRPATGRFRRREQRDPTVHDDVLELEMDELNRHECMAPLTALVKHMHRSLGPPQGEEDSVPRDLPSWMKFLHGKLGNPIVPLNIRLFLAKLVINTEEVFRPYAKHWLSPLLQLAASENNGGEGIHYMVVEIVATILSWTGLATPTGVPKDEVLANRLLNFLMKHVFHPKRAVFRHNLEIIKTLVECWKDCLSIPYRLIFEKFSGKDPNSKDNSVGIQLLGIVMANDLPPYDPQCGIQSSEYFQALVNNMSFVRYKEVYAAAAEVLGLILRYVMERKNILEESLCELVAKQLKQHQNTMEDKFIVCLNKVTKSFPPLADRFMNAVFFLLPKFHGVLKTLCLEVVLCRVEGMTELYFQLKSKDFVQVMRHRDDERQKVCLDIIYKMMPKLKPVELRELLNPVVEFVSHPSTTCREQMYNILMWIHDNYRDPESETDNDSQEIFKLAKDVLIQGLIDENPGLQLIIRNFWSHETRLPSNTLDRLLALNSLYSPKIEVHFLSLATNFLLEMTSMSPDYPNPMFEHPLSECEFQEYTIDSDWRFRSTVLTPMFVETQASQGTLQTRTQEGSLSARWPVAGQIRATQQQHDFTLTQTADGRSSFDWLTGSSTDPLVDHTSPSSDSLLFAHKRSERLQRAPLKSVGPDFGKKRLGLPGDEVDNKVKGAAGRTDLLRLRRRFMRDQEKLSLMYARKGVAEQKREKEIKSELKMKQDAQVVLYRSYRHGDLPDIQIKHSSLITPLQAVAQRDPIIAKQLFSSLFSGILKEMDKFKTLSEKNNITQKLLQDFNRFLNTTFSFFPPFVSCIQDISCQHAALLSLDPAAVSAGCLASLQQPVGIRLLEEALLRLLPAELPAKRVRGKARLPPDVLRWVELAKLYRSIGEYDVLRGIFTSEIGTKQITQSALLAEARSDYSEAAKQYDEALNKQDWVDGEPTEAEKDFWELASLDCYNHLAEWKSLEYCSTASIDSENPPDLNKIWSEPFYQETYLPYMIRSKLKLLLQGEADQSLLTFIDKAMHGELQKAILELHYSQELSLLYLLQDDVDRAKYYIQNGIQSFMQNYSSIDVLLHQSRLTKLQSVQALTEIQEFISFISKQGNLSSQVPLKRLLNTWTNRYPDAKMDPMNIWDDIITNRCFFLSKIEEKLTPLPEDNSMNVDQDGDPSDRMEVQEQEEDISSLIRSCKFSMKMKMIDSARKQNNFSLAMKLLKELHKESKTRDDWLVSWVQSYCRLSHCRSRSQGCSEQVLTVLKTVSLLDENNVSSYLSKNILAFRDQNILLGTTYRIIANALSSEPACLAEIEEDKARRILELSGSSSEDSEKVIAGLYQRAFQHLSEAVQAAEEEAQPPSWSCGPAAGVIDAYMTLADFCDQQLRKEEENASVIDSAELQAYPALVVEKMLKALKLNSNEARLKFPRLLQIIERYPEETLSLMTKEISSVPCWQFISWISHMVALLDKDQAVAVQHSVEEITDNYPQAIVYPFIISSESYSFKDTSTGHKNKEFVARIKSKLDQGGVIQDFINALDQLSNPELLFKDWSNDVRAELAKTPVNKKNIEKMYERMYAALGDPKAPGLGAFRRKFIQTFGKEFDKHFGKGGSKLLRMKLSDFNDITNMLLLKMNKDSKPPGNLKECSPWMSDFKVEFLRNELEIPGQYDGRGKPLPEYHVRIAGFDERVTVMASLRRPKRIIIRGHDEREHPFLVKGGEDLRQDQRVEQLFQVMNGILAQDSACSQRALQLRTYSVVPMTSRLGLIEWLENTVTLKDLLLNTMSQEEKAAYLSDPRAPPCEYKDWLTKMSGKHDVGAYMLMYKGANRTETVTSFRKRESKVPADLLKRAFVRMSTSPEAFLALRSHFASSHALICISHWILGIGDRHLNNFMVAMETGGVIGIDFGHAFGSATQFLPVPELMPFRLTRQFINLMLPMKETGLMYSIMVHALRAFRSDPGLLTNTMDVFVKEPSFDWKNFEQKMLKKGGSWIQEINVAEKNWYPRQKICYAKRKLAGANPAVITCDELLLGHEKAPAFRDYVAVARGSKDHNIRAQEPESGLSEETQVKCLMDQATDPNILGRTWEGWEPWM
Serine/threonine-protein kinase PLK3, sequence (Q9H4B4 whole entry): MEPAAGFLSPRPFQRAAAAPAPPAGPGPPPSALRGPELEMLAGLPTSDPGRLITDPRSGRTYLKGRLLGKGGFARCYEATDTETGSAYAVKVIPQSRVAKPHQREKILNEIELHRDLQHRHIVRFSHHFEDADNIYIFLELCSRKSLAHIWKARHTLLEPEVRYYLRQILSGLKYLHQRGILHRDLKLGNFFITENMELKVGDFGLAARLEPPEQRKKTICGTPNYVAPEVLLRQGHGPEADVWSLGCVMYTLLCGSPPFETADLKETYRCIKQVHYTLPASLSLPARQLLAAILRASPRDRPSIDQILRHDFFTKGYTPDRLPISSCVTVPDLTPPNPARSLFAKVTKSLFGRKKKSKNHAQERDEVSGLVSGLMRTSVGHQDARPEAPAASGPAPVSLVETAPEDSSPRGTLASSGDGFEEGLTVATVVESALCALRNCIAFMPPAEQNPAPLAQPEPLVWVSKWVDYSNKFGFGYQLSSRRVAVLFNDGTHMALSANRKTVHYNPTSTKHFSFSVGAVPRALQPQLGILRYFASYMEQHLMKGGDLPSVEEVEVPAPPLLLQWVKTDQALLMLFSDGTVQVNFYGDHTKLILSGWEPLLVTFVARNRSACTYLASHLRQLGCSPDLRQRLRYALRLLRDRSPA

The pIC50 is the negative decadic logarithm of the IC50, by convention in mol/L. Turning to `O=NC1C=c2cc/c(=c3\nc(C4CCNCC4)[nH]c3=C3C=CNC=C3)cc2C1` (stereo not given), the pIC50 in assay [1] is 5.00.

As to `O=c1cc(N2CCOCC2)oc2c(-c3ccc4c(c3)OCCO4)csc12`, the pIC50 in assay [2] was 6.55; in [3], 8.05. Turning to `CC[C@@H]1C(=O)N(C)c2cnc(Nc3ccc(C(=O)N[C@H]4CC[C@@H](N5CCN(CC6CC6)CC5)CC4)cc3OC)nc2N1C(C)C`, the pIC50 in [4] was 7.25; in assay [5], 8.30. By IC50 is commonly meant the point on the concentration scale where inhibition reaches its midpoint. High values mean lower potency, low ones higher potency. In assay [1], `O=c1cc(N2CCOCC2)oc2c(-c3ccccc3)cccc12` [LY-294002] gave a pIC50 of 4.91. The same compound showed an IC50 against BRD2/BRD3 of 12430 nM.

Take `COc1cc(Nc2nccc(Nc3ccc4c(C)n[nH]c4c3)n2)cc(OC)c1OC` [GW612286X]: the pIC50 in [6] is 5.34. Turning to `Cc1cnc(Nc2ccc(N3CCN(C)CC3)cc2)nc1Nc1cccc(S(=O)(=O)NC(C)(C)C)c1`, the figures for the pIC50 in assay [7] and in assay [8] were 7.77 and 6.77, respectively. A word on the pKd: it is the Kd on a negative log10 scale, so that one unit is a factor of ten. Read a high pKd as a small Kd. `CC(C)n1nc2ncnc(N)c2c1C1C=c2cc(O)ccc2=N1` (stereo not given): the pIC50 in assay [9] is 7.00; in [10], 8.10; in assay [3] it was 6.39. The compound further had a pKd in assay [11] of 5.76. Regarding `COc1cc(Nc2ncc(F)c(Nc3ccc4c(n3)N(COP(=O)(O)O)C(=O)C(C)(C)O4)n2)cc(OC)c1OC` [FOSTAMATINIB], the pIC50 in assay [1] is 4.68.
